From PMC5504357, “Antifungal Potential of Copper(II), Manganese(II) and Silver(I) 1,10-Phenanthroline Chelates Against Multidrug-Resistant Fungal Species Forming the Candida haemulonii Complex: Impact on the Planktonic and Biofilm Lifestyles” (Frontiers in Microbiology, 2017) come the findings set out here.

Molecules are shown by their SMILES. Values after ≈ are worked out from the molar mass of the structure shown. Read-outs that look alike come from different tables or passages of the source.

For series [1], the system named is Candida haemulonii var. vulnera. Put plainly: Biofilm-growing cells, XTT assay, bMIC. It is filed as cell-based. Particulars: for GM-bMIC: geometric mean, C. haemulonii var. vulnera isolates; for bMIC: mature biofilm, 48 h, 50% inhibition of metabolic activity. In outline:
(§1)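 XTT readout; bMIC = min. conc. inhibiting 50% metabolic activity vs untreated wells. Preformed 48 h biofilms (10^6 cells, Sabouraud-dextrose broth, 37°C), PBS-washed, then 48 h compound exposure at 37°C.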
(In general: Tetrazolium dyes change colour on reduction, which living cells bring about.)

Series [2] concerns Candida duobushaemulonii. Nature of the series: Biofilm-growing cells, XTT assay, bMIC. It is filed as cell-based. The settings on record: for GM-bMIC: geometric mean, C. duobushaemulonii isolates; for bMIC: mature biofilm, 48 h, 50% inhibition of metabolic activity. In short, it runs like this: as §1
Series [3] has as its system Candida haemulonii. Nature of the series: Biofilm-growing cells, XTT assay, bMIC. It is filed as cell-based. Particulars: for GM-bMIC: geometric mean, C. haemulonii isolates, values marked * do not include LIP Ch4 (>512); for bMIC: mature biofilm, 48 h, 50% inhibition of metabolic activity. In short, it runs like this: as §1
Series [4] in a line: Mammalian cell toxicity (MTT assay) and selectivity index. It is filed as cell-based, Human. The settings on record: human, A549 cells (human lung adenocarcinoma); MTT, 48 h incubation. In short, it runs like this:
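A549 cells were exposed to compounds (0.0313–512 μg/mL) in DMEM for 48 h at 37 °C, 5% CO2. Viability was measured by MTT (3 h, dark), with formazan dissolved in DMSO and read at 450 nm. CC50 was derived, and SI calculated as A549 CC50 divided by C. haemulonii complex GM-MIC.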

The subject of a further series is C. haemulonii complex. Nature of the series: Planktonic growth, overall across all nine isolates. Particulars: for MIC: Candidozyma haemuli, geometric mean across all nine strains, read-out: Overall GM-MIC; for effect on planktonic fungal growth/viability (in words): nine clinical isolates, 0.0625-32 mg/L. It is filed as cell-based, Candida haemulonii complex. In short, it runs like this:
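CLSI M27-A3 microdilution, RPMI 1640, 0.0625-32 mg/L; compounds from DMSO, metal salts and phen in water; 37°C, 48 h; MIC = no visible growth. Overall value: GM-MIC over nine isolates.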

Series [5] deals with Candida haemulonii complex. Put plainly: Biofilm-growing cells, overall across isolates. It is filed as cell-based. Particulars: geometric mean across strains, values marked * do not include LIP Ch4 (>512). In short, it runs like this:
as §1

For series [6], the system named is Candida haemulonii var. vulnera. Put plainly: Planktonic growth, broth microdilution (CLSI M27-A3), MIC. It is filed as cell-based. Particulars: Candidozyma haemuli. In short, it runs like this: (§2)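 Clinical isolates (nail, blood, urine) grown 48 h at 37°C in Sabouraud-dextrose, then tested by CLSI M27-A3 broth microdilution in RPMI 1640 over 0.0625-32 mg/L, 48 h at 37°C. MIC is the lowest concentration with no visible growth; geometric mean MIC calculated across all isolates.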

The test system of series [7] is Candida duobushaemulonii. The series is described as above. It is filed as cell-based. Particulars: Candidozyma duobushaemuli. In short, it runs like this: as §2
For series [8], the system named is Candida haemulonii. The series is described as above. It is filed as cell-based. Particulars: Candidozyma haemuli. In outline: as §2
A further series in a line: Solubility in solvents. It is filed as physicochemical. Particulars: solvents as named. The procedure: {[Cu(3,6,9-tdda)(phen)2].3H2O.EtOH}n (7). Step (i): Copper(II) acetate hydrate (1.50 g; 7.51 mmol) was dissolved in ethanol (50 mL) and the solution was added to an ethanolic solution (25 mL) of 3,6,9-trioxaundecanedioic acid (3,6,9-tddaH2) (2.84 g; […]). The light-green suspension was refluxed for 1 h, and after cooling to room temperature the light-green solid, [Cu(3,6,9-tdda)].H2O, was filtered off, washed with cold ethanol and air dried. Yield: 1.88 g (82.97%). % Calculated: C: 31.84, H: 4.68. % Found: C: 32.20, H: 4.60. […] Step (ii): [Cu(3,6,9-tdda)].H2O (1.00 g; 3.31 mmol) and phen (2.39 g; 13.26 mmol) were dissolved together in ethanol (50 mL) and the resulting dark-green mixture was refluxed for 2 h. The suspension was cooled and the green solid, {[Cu(3,6,9-tdda)(phen)2]3H2O.EtOH}n(7), was filtered off, washed with cold ethanol and air dried. Yield: 1.63 g (66.09%). % Calculated: C: 54.87, H: 5.42, N: 7.53. % Found: C: 54.65, H: 5.63, N: 7.39.
[Ag2(3,6,9-tdda)(phen)4].EtOH (16). Step (i): Silver(I) acetate (3.00 g; 17.97 mmol) was dissolved in ethanol (30 mL) and the solution was added to an ethanolic solution (25 mL) of 3,6,9-trioxaundecanedioic acid (3,6,9-tddaH2) (2.84 g; 8.95 mmol) and the orange-brown suspension refluxed for 3 h. […] Green [Ag2(3,6,9-tdda)(phen)4].EtOH (16) precipitated and was filtered off, washed with cold ethanol and air dried. Yield: 0.83 g (65.10%). % Calculated: C: 57.92, H: 4.19, N: 9.32. % Found: C: 57.75, H: […], N: 9.02. IR (KBr) νmax: 3380, 3046, 2905, 1978, 1804, 1618, 1585, 1509, 1421, 1322, 1263, 1215, 1121, 1077, 1018, 932, 890, 838, 726, 621, 465, 413 cm^−1. ^1H NMR (500 MHz, DMSO-d6, 313 K, TMS) δ = 9.12(8H, s), 8.63 (8H, d), 8.08 (8H, s), 7.91 (8H, dd), 3.74 (4H, s), 3.57 (8H, dd). ^13C NMR (125 MHz, DMSO-d6, 313 K, TMS) δ = 173.41, 151.28, 143.57, 138.03, 129.24, 127.37, 124.74, 71.44, 70.42, 69.74.

[9] abbreviates: 48 h, isolate LIP Ch5, planktonic, 48 h, 37°C, read-out: MIC.
The mark [10] stands for this setting: 48 h, isolate LIP Ch9, planktonic, 48 h, 37°C, read-out: MIC.
Setting [11] is: 48 h, isolate LIP Ch11, planktonic, 48 h, 37°C, read-out: MIC.
Where [12] appears, read: geometric mean of three C. haemulonii var. vulnera isolates, read-out: GM-MIC.
The mark [13] stands for this setting: 48 h, isolate LIP Ch1, planktonic, 48 h, 37°C, read-out: MIC.
The mark [14] stands for this setting: 48 h, isolate LIP Ch6, planktonic, 48 h, 37°C, read-out: MIC.
Setting [15] is: 48 h, isolate LIP Ch8, planktonic, 48 h, 37°C, read-out: MIC.
Setting [16] is: geometric mean of three C. duobushaemulonii isolates, read-out: GM-MIC.
The mark [17] stands for this setting: 48 h, isolate LIP Ch4, planktonic, 48 h, 37°C, read-out: MIC.
[18] abbreviates: 48 h, isolate LIP Ch7, planktonic, 48 h, 37°C, read-out: MIC.
Where [19] appears, read: 48 h, isolate LIP Ch12, planktonic, 48 h, 37°C, read-out: MIC.
[20] abbreviates: geometric mean of three C. haemulonii isolates, read-out: GM-MIC.

A word on the CC50: it is the concentration at which the toxic effect on the cells reaches its halfway point. By MIC is commonly meant the least concentration at which growth counts as inhibited. For `O=C1C(=O)c2cccnc2-c2ncccc21` [phendione, 1,10-phenanthroline-5,6-dione, reference compound], the GM-bMIC in [1] is given as 20.16 mg/L; in the series on Candida duobushaemulonii [2], 12.70 mg/L; with Candida haemulonii [3] it was 11.31^* mg/L. Also, the bMIC in [1] (isolate LIP Ch5) amounted to 16 mg/L; in series [1] (isolate LIP Ch9), 16 mg/L; in series [1] (isolate LIP Ch13) it was 32 mg/L; in the series on Candida duobushaemulonii [2] (isolate LIP Ch1), 4 mg/L; with Candida duobushaemulonii [2] (isolate LIP Ch6), 32 mg/L; in the series on Candida duobushaemulonii [2] (isolate LIP Ch8), 16 mg/L. The bMIC with Candida haemulonii [3] (isolate LIP Ch4) is reported as more than 512 mg/L; in the series with Candida haemulonii [3] (isolate LIP Ch7) it was 8 mg/L; with Candida haemulonii [3] (isolate LIP Ch14) it was 16 mg/L. For the same compound, the CC50 at 48 h in series [4] amounted to 2.02 µg/mL (≈ 9.61 µM). The MIC stood at 10.3 µM with C. haemulonii complex (in μM); 2.16 µg/mL in the series with C. haemulonii complex; 2 µg/mL (≈ 9.52 µM) in series [6] (setting [9]); 2 µg/mL (≈ 9.52 µM) in [6] (setting [10]); 2 µg/mL (≈ 9.52 µM) in series [6] (setting [11]); 2 µg/mL (≈ 9.52 µM) in series [6] (setting [12]). Besides, the minimum inhibitory concentration (MIC) in the series with Candida duobushaemulonii [7] (setting [13]) stood at 2 µg/mL (≈ 9.52 µM); in the series on Candida duobushaemulonii [7] (setting [14]), 4 µg/mL (≈ 19 µM); in the series with Candida duobushaemulonii [7] (setting [15]), 2 µg/mL (≈ 9.52 µM); in the series on Candida duobushaemulonii [7] (setting [16]), 2.52 µg/mL (≈ 12 µM); in the series with Candida haemulonii [8] (setting [17]), 2 µg/mL (≈ 9.52 µM); in the series on Candida haemulonii [8] (setting [18]), 2 µg/mL (≈ 9.52 µM). Besides, the MIC with Candida haemulonii [8] (setting [19]) and in the series with Candida haemulonii [8] (setting [20]) was 2 µg/mL (≈ 9.52 µM) in each case. Moreover, the “effect on planktonic fungal growth/viability (in words)” value in the series with C. haemulonii complex is listed as “appreciably deterred fungal growth”. For the same compound, the “Overall GM-bMIC” value in [5] (in μM) was 76 µM; in series [5] it was 14.67 mg/L.

On to `c1cnc2c(c1)ccc1cccnc12` [phen, 1,10-phenanthroline], for which the GM-bMIC in series [1] is given as 10.08 mg/L; in the series on Candida duobushaemulonii [2] it was 1 mg/L; with Candida haemulonii [3] it was 12.70 mg/L. The bMIC in series [1] (isolate LIP Ch5) is given as 4 mg/L; in [1] (isolate LIP Ch9) it was 32 mg/L; in series [1] (isolate LIP Ch13) it was 8 mg/L; in the series on Candida duobushaemulonii [2] (isolate LIP Ch1), 1 mg/L; in the series on Candida duobushaemulonii [2] (isolate LIP Ch6), 1 mg/L; in the series with Candida duobushaemulonii [2] (isolate LIP Ch8) it was 1 mg/L. The bMIC is 512 mg/L in the series with Candida haemulonii [3] (isolate LIP Ch4), 2 mg/L in the series on Candida haemulonii [3] (isolate LIP Ch7) and 2 mg/L in the series with Candida haemulonii [3] (isolate LIP Ch14). This compound also gave a CC50 at 48 h in series [4] of 4.3 µg/mL (≈ 23.9 µM). Besides, the MIC was 5.16 µM in the series with C. haemulonii complex (in μM); 0.93 µg/mL with C. haemulonii complex; 1 µg/mL (≈ 5.55 µM) in series [6] (setting [9]); 1 µg/mL (≈ 5.55 µM) in series [6] (setting [10]); 0.5 µg/mL (≈ 2.77 µM) in series [6] (setting [11]); 0.79 µg/mL (≈ 4.38 µM) in series [6] (setting [12]). Moreover, the MIC with Candida duobushaemulonii [7] (setting [13]), in the series with Candida duobushaemulonii [7] (setting [14]), with Candida duobushaemulonii [7] (setting [15]), in the series with Candida duobushaemulonii [7] (setting [16]), in the series with Candida haemulonii [8] (setting [17]) and with Candida haemulonii [8] (setting [18]) was 1 µg/mL (≈ 5.55 µM) in each case. For the same compound, the MIC in the series on Candida haemulonii [8] (setting [19]) and with Candida haemulonii [8] (setting [20]) was 1 µg/mL (≈ 5.55 µM) throughout. In addition, the “effect on planktonic fungal growth/viability (in words)” value with C. haemulonii complex is “appreciably deterred fungal growth”. In addition, the “activity of metal-free phen relative to phendione” value in the series with C. haemulonii complex (planktonic, more active than phendione) is recorded as ~ 2 fold. Besides, the “Overall GM-bMIC” value in [5] (in μM) came to 27.96 µM; in series [5], 5.04 mg/L.

For `O.O=C([O-])COCCOCCOCC(=O)[O-].[Cu+2]` [[Cu(3,6,9-tdda)].H2O], in “Solubility in solvents”, the Solubility entry is “soluble in H2O, MeOH, EtOH and insoluble in CHCl3, ethyl acetate and acetone”.

For `O.O.O=C([O-])COCCOCCOCC(=O)[O-].[Ag+].[Ag+]` [[Ag2(3,6,9-tdda].2H2O], the Solubility result in “Solubility in solvents” is “soluble in hot H2O and hot DMSO”.
